Assay results from ChEMBL document CHEMBL1201862, “PubChem BioAssay data set” (2004).
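Cells were grown in 96-well plates and exposed to each compound for 48 hours at five concentrations; endpoints were interpolated linearly between bracketing concentrations, or set to the highest concentration if not reached. GI50 is the concentration that inhibits growth by half.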 Active and inactive are the calls of the source. Rule as the data show it: active = GI50 up to about 1.1 µM and inactive = higher.

Experiments:
Experiment in all cases: DTP human tumour cell line panel, 48 h
[1] = system: A549
[2] = system: NCI-H226
[3] = system: SK-MEL-5
[4] = system: NCI-H23
[5] = system: COLO 205
[6] = system: CCRF-CEM
[7] = system: T47D
[8] = system: ACHN
[9] = system: M14
[10] = system: BT-549
[11] = system: OVCAR-8
[12] = system: SNB-75
[13] = system: MDA-N
[14] = system: U-251
[15] = system: 786-0
[16] = system: HCT-15
[17] = system: IGROV-1
[18] = system: MOLT-4
[19] = system: A498
[20] = system: SF-268
[21] = system: HOP-92
[22] = system: EKVX
[23] = system: K562
[24] = system: OVCAR-3
[25] = system: LOX IMVI
[26] = system: MDA-MB-435
[27] = system: HCT-116
[28] = system: NCI/ADR-RES
[29] = system: NCI-H522
[30] = system: UACC-257
[31] = system: SK-MEL-28
[32] = system: SK-OV-3
[33] = system: SW-620
[34] = system: SNB-19
[35] = system: Hs-578T
[36] = system: Malme-3M
[37] = system: MCF7
[38] = system: OVCAR-5
[39] = system: MDA-MB-231
[40] = system: SF-539
[41] = system: KM12
[42] = system: SN12C
[43] = system: SK-MEL-2
[44] = system: UACC-62
[45] = system: NCI-H460
[46] = system: CAKI-1
[47] = system: DU-145
[48] = system: PC-3
[49] = system: SR
[50] = system: SF-295
[51] = system: HT-29
[52] = system: OVCAR-4
[53] = system: TK-10
[54] = system: HCC 2998
[55] = system: HL-60
[56] = system: RXF 393
[57] = system: UO-31
[58] = system: HOP-62
[59] = system: RPMI-8226

In the case of `COC12CCCN1c1ccn(Cc3ccccc3)c(=O)c1C2=O` (stereo not drawn), the GI50 [1] is reported as > 100 µM (inactive), the GI50 [2] is reported as > 100 µM (inactive) and the GI50 [3] is reported as > 100 µM (inactive). For the same compound, the GI50 [4] was > 100 µM (inactive), the GI50 [5] was > 100 µM (inactive) and the GI50 [6] was 82 µM (inactive). For the same compound, the GI50 [7] was > 100 µM (inactive), the GI50 [8] was > 100 µM (inactive) and the GI50 [9] was > 100 µM (inactive). The GI50 [10] was > 100 µM (inactive), the GI50 [11] was > 100 µM (inactive) and the GI50 [12] was > 100 µM (inactive). For the same compound, the GI50 [13] was > 100 µM (inactive), the GI50 [14] was > 100 µM (inactive) and the GI50 [15] was > 100 µM (inactive). For the same compound, the GI50 [16] was greater than 100 µM, the GI50 [17] was > 100 µM (inactive) and the GI50 [18] was 28.7 µM (inactive). The GI50 [19] was > 100 µM (inactive), the GI50 [20] was > 100 µM (inactive) and the GI50 [21] was > 100 µM (inactive). The GI50 [22] was > 100 µM (inactive), the GI50 [23] was > 100 µM (inactive) and the GI50 [24] was > 100 µM (inactive). The GI50 [25] was > 100 µM (inactive), the GI50 [26] was > 100 µM (inactive) and the GI50 [27] was > 100 µM (inactive). The GI50 [28] was > 100 µM (inactive), the GI50 [29] was > 100 µM (inactive) and the GI50 [30] was > 100 µM (inactive). For the same compound, the GI50 [31] was > 100 µM (inactive), the GI50 [32] was > 100 µM (inactive) and the GI50 [33] was > 100 µM (inactive). The GI50 [34] was > 100 µM (inactive), the GI50 [35] was > 100 µM (inactive) and the GI50 [36] was > 100 µM (inactive). For the same compound, the GI50 [37] was > 100 µM (inactive), the GI50 [38] was > 100 µM (inactive) and the GI50 [39] was > 100 µM (inactive). The GI50 [40] was > 100 µM (inactive), the GI50 [41] was > 100 µM (inactive) and the GI50 [42] was > 100 µM (inactive). The GI50 [43] was > 100 µM (inactive), the GI50 [44] was > 100 µM (inactive) and the GI50 [45] was > 100 µM (inactive). For the same compound, the GI50 [46] was > 100 µM (inactive), the GI50 [47] was > 100 µM (inactive) and the GI50 [48] was > 100 µM (inactive). For the same compound, the GI50 [49] was > 100 µM (inactive), the GI50 [50] was > 100 µM (inactive) and the GI50 [51] was > 100 µM (inactive). The GI50 [52] was > 100 µM (inactive), the GI50 [53] was > 100 µM (inactive) and the GI50 [54] was > 100 µM (inactive). For the same compound, the GI50 [55] was 66.1 µM (inactive), the GI50 [56] was > 100 µM (inactive) and the GI50 [57] was > 100 µM (inactive).
In the case of `C#CCCCOc1ncccn1`, the GI50 [1] is reported as > 100 µM (inactive), the GI50 [2] is reported as > 100 µM (inactive) and the GI50 [3] is reported as > 100 µM (inactive). The GI50 [4] was > 100 µM (inactive), the GI50 [5] was > 100 µM (inactive) and the GI50 [6] was > 10 µM (inactive). The GI50 [7] was > 100 µM (inactive), the GI50 [8] was > 100 µM (inactive) and the GI50 [9] was > 100 µM (inactive). The GI50 [10] was > 100 µM (inactive), the GI50 [11] was > 100 µM (inactive) and the GI50 [13] was > 100 µM (inactive). The GI50 [14] was > 100 µM (inactive), the GI50 [15] was > 100 µM (inactive) and the GI50 [17] was > 100 µM (inactive). For the same compound, the GI50 [18] was > 100 µM (inactive), the GI50 [19] was > 100 µM (inactive) and the GI50 [20] was > 100 µM (inactive). The GI50 [21] was > 100 µM (inactive), the GI50 [22] was > 100 µM (inactive) and the GI50 [23] was > 100 µM (inactive). The GI50 [24] was > 100 µM (inactive), the GI50 [25] was > 100 µM (inactive) and the GI50 [26] was > 100 µM (inactive). For the same compound, the GI50 [27] was > 100 µM (inactive), the GI50 [28] was > 100 µM (inactive) and the GI50 [58] was > 100 µM (inactive). For the same compound, the GI50 [29] was > 100 µM (inactive), the GI50 [30] was > 100 µM (inactive) and the GI50 [31] was > 100 µM (inactive). The GI50 [32] was > 100 µM (inactive), the GI50 [33] was > 100 µM (inactive) and the GI50 [34] was > 100 µM (inactive). The GI50 [35] was > 100 µM (inactive), the GI50 [36] was > 100 µM (inactive) and the GI50 [37] was > 100 µM (inactive). For the same compound, the GI50 [38] was > 100 µM (inactive), the GI50 [39] was > 100 µM (inactive) and the GI50 [40] was > 100 µM (inactive). For the same compound, the GI50 [59] was > 100 µM (inactive), the GI50 [41] was > 100 µM (inactive) and the GI50 [42] was > 100 µM (inactive). For the same compound, the GI50 [43] was > 100 µM (inactive), the GI50 [44] was > 100 µM (inactive) and the GI50 [46] was > 100 µM (inactive). The GI50 [47] was > 100 µM (inactive), the GI50 [48] was > 100 µM (inactive) and the GI50 [49] was > 100 µM (inactive). The GI50 [50] was > 100 µM (inactive), the GI50 [51] was > 100 µM (inactive) and the GI50 [52] was > 100 µM (inactive). The GI50 [53] was > 100 µM (inactive), the GI50 [54] was > 100 µM (inactive) and the GI50 [55] was > 100 µM (inactive). For the same compound, the GI50 [56] was > 100 µM (inactive) and the GI50 [57] was > 100 µM (inactive).
